Measurements: patent publication US20240216465A1, “METHOD FOR TREATING REFRACTORY BRAIN TUMOR” (National Yang Ming Chiao Tung University, priority 2023, published 2024)
Where a SMILES comes first, the peptide text is derived from it. The star is where a group is joined. Cbz = O=C(OCc1ccccc1)*

How the values were obtained:
Slug = test: Western blot of Slug in GBM cells; format: cell-based, human; conditions: MG132 10 μM 30 mins pretreatment, then GMI 0.6 μM 3 h
Procedure: FIGS. 10A-10D show GMI induces Slug degradation in GBM cells. […] The mRNA level of Slug was measured using qPCR.
Cell extracts (30 μg) were then subjected to one-dimensional SDS-PAGE (8-12% separating gel) electrophoresis and were transferred to a PVDF membrane (0.22 μm, Millipore) by using a transfer apparatus (Bio-Rad, Richmond, CA). Membranes were blocked with 5% BSA in TBST buffer containing 0.05% Tween20. The expressions of proteins were identified by indicated antibodies. The expression of tubulin as an internal control. The indicated bands on the PVDF membrane were quantified using densitometry analysis by ImageJ software (National Institute of Mental Health, Bethesda, MD) and compared to results of the control group.

[1] = Rat weight and serum AST, ALT, BUN, creatinine in C6-bearing rats; format: in vivo; conditions: rat sera, TMZ 30 mg/kg ip
Procedure: FIGS. 7A-7F show GMI combined with TMZ suppressed tumorigenesis in C6-bearing rats. FIG. 7A indicates Schematic design of the in vivo post combined therapy of GMI and TMZ in C6-bearing rats. The tumor volume in rat received GMI (0.6 mg/kg) and […]. […] FIG. 7C indicates the tumor volume was measured; each bar represents the mean+SD. […] FIGS. 7E and 7F show the AST and ALT (hepatic function: shown in FIG. 7E) as well as BUN and creatinine (renal function; shown in FIG. 7F) of rat sera were analyzed.
Five days after tumor implantation surgery, rats were randomly assigned into four group (6 animals/group) to be treated with different drugs every other day for 4 times, i.e. on day 5, 7, 9, 11. • Group 1 (control): intravenous administration of saline. • Group 2 (GMI): intravenous (iv) administration of GMI (0.6 mg/Kg) • Group 3 (TMZ): intraperitoneal (ip) administration of TMZ (30 mg/Kg) • Group 4 (GMI+TMZ): combination of GMI (iv, 0.6 mg/Kg) and TMZ (ip, 30 mg/Kg)
MRI imaging acquisition was performed on day 13 and a half of the animals in each group were sacrificed on day 15 for immunohistochemistry study. After tumor volume was measured, specimens from the animals in the histology group were subjected to other histological evaluations described as follows.

SMILES | GMI-induced Slug degradation (Slug) | AST/ALT ([1]; GMI 0.6 mg/kg iv) | BUN [1]
CC(C)C[C@@H](C=O)NC(=O)[C@H](CC(C)C)NC(=O)[C@H](CC(C)C)NC(=O)OCc1ccccc1 [MG132] (Cbz-Leu-Leu-Leu-aldehyde) | counteracted GMI-induced Slug degradation | – | –
Cn1nnc2c(C(N)=O)ncn2c1=O [TMZ, Temozolomide] | – | increased AST/ALT expression | slightly increased BUN expression
